{"source": "patent US20230321043A1", "about": "“COMPOUNDS HAVING PSEUDOMONAS ANTI-BIOFILM PROPERTIES” (Københavns Universitet, priority 2020, published 2023)", "key": {"[1]": {"experiment": "solubility in aqueous media", "settings": "aqueous media"}, "[2]": {"system": "P. aeruginosa mPA01 wt and PDE mutants incl. PA4367 (bifA)", "experiment": "dispersal of biofilms of PDE transposon mutants, crystal violet", "type": "cell-based, Pseudomonas aeruginosa", "settings": "18 hours old biofilm, two hours of treatment, FIG. 6A", "method": "The inventors obtained mutants of all P. aeruginosa PDEs from the Washington P. aeruginosa mPAO1 transposon mutant library and investigated the ability of H6-335-P1 to disperse biofilms formed by each of these mutants in microtiter trays. […]\nThe resulting cultures were incubated at 37° C. on a rotary shaker (160 RPM) and biofilms were grown for 18 hours, at which time point either 2 μL of a 5 mM H6-335-P1 in 50% DMSO (+) or 2 μL of 50% DMSO (−) were added to each well. After two subsequent hours of growth, the culture supernatants were discarded and the amounts of biofilm present in the wells were quantified by crystal violet (CV) staining (Groizeleau et al., 2016).\nThe amounts of biofilm prevailing after two hours of treatments were determined for the wt strain mPA01 and each of the PDE mutants. […]"}, "[3]": {"system": "P. aeruginosa ΔbifAΔwspF mutant", "experiment": "biofilm formation of bifA knockout, crystal violet", "type": "cell-based, Pseudomonas aeruginosa", "settings": "100 μM, 16 hours of growth, FIG. 6B left", "method": "Biofilm quantification was done using a 96 well microtiter platform where 20 hour old cultures of the deletion mutant of P. aeruginosa PA01 (ΔwspF) and its isogenic bifA deletion mutant (ΔbifA-) were diluted […] into 100 μL ABTrace media aliquots (Pamp and Tolker-Nielsen, 2007) supplemented with 0.2% glucose, 0.5% casa amino acids, 1 μM FeCl3, 0.2% DMSO and either 100 μM or 0 μM of H6-335-P1. The resulting cultures were incubated at 37° C. and 160 RPM, and following 16 hours of growth the amounts of biofilm were quantified by the use of crystal violet staining."}, "[4]": {"system": "P. aeruginosa (PA01) tagged with GFP biofilm", "experiment": "flow-chamber biofilm, confocal laser scanning microscopy", "type": "cell-based, Pseudomonas aeruginosa", "method": "Biofilms were grown at 37° C. in continuous-culture, once-through, three-channel, flow-chambers (individual channel dimensions of 1×4×40 mm) perfused with sterile AB trace minimal medium (Pamp and Tolker-Nielsen, 2007), supplemented with 0.3 mM glucose and 0.025% (v/v) DMSO. P. aeruginosa (PA01) tagged with GFP at a neutral chromosomal locus was used for the experiments. After a static attachment phase of 1 h, the flow of medium was turned on and the biofilms were allowed to establish for 48 h in the absence (untreated) or presence (treated) of medium supplemented with 25 μM of H6-335-P1. Confocal laser scanning microscopy was used to image the biofilms after 24 h and 48 h (FIG. 5A).\nConfocal laser scanning microscopy was used to image the biofilm immediately before H6-335-P1 was added, and after 4 h of H6-335-P1 treatment. Simulated fluorescence projections in 3D were generated from the image stacks using the IMARIS software package (Bitplane, Oxford Imaging, UK) and the resulting images were processed for publication using Photoshop (Adobe, USA)."}, "Enterococcus facieum": {"system": "Enterococcus facieum", "experiment": "biofilm formation / dispersal, host range", "type": "cell-based", "settings": "data not shown"}, "[5]": {"system": "Stenotrophomonas maltophilia", "experiment": "biofilm formation / dispersal, host range", "type": "cell-based", "settings": "data not shown", "description": "(§1) To determine the host range of H6-335-P1, the inventors conducted a Blast search for analogs of the P. aeruginosa BifA phosphodiesterase protein encoded by gene PA4367 (bifA)."}, "Acinetobacter baumanii": {"system": "Acinetobacter baumanii", "experiment": "biofilm formation / dispersal, host range", "type": "cell-based", "settings": "data not shown", "description": "as §1"}, "Enterobacter cloacae": {"system": "Enterobacter cloacae", "experiment": "biofilm formation / dispersal, host range", "type": "cell-based", "settings": "data not shown", "description": "as §1"}, "Burkholderia cenocepacia": {"system": "Burkholderia cenocepacia", "experiment": "biofilm formation / dispersal, host range", "type": "cell-based", "settings": "data not shown", "description": "as §1"}, "Klebsiella pneumoniea": {"system": "Klebsiella pneumoniea", "experiment": "biofilm formation / dispersal, host range", "type": "cell-based", "settings": "data not shown"}, "Pseudomonas flourescens": {"system": "Pseudomonas flourescens", "experiment": "biofilm formation, crystal violet, host range", "type": "cell-based", "settings": "100 μM, 8 hours, FIG. 11", "method": "as §1\n(§2) Briefly, the experiment presented in FIG. 11 were carried out in 96 well microtiter plates as follows. 20 hours old cultures of either P. aeruginosa, P. putida or P. flourescens were diluted 1000 fold into 100 μL aliquots of ABtrace media supplemented with 0.5% Cas amino acids, 0.2% glucose, 1 μM FeCl3, 0.2% DMSO and either 100 μM H6-335-P1 or none H6-335-P1. The resulting microtiter plate were sealed with an air permeable lid and the cultures were incubated at 37° C. on rotary shaker at 160 RPM. Following 8 hours of growth the culture supernatants were discarded and the amount of biofilm present in each well were quantified by the use of crystal violet staining. Finally, the obtained values of crystal violet (biofilm material) were plotted as a function of strain and the presence of 100 μM H6-335-P1 or absence of H6-335-P1. In FIG. 11 means and standard deviations (bars) represents 4 biological replicates (n=4)."}, "Pseudomonas putida": {"system": "Pseudomonas putida", "experiment": "biofilm formation, crystal violet, host range", "type": "cell-based", "settings": "100 μM, 8 hours, FIG. 11", "method": "as §1, §2"}}, "data": [{"smiles": "N=C1NN=C(N)/C1=N/Nc1ccccc1F", "note": "[H6-335-P1, 4-[(2-fluorophenyl) hydrazinylidene]pyrazole-3,5-diamine]", "values": [{"measurement": "solubility", "setting": "[1]", "result": "< 2", "unit": "µM"}, {"measurement": "induced dispersal of biofilm of the bifA mutant (PA4367)", "setting": "[2]", "result": "did not respond to H6-335-P1 induced dispersal"}, {"measurement": "induced dispersal of biofilms of P. aeruginosa wt and all the remaining PDE mutants", "setting": "[2]", "result": "dispersed in response to H6-335-P1 exposure"}, {"measurement": "response of biofilm formation of ΔbifAΔwspF mutant", "setting": "[3]", "result": "no longer responded to the presence of H6-335-P1"}, {"measurement": "prevention of biofilm formation in flow-through cells", "setting": "[4]; 25 μM in the growth medium, 48 h, FIG. 5A", "result": "significantly prevented biofilm formation"}, {"measurement": "biofilm biomass left behind", "setting": "[4]; 25 μM, 48 h old biofilm, after four hours of exposure, FIG. 5B", "result": 10, "unit": "%"}, {"measurement": "biofilm formation of Enterococcus facieum", "setting": "Enterococcus facieum", "result": "failed to reduce biofilm formation"}, {"measurement": "biofilm formation of Stenotrophomonas maltophilia", "setting": "[5]", "result": "failed to reduce biofilm formation"}, {"measurement": "biofilm formation of Acinetobacter baumanii", "setting": "Acinetobacter baumanii", "result": "failed to reduce biofilm formation"}, {"measurement": "biofilm formation of Enterobacter cloacae", "setting": "Enterobacter cloacae", "result": "failed to reduce biofilm formation"}, {"measurement": "biofilm formation of Burkholderia cenocepacia", "setting": "Burkholderia cenocepacia", "result": "failed to reduce biofilm formation"}, {"measurement": "biofilm formation of Klebsiella pneumoniea", "setting": "Klebsiella pneumoniea", "result": "failed to reduce biofilm formation"}, {"measurement": "biofilm formation of Pseudomonas flourescens", "setting": "Pseudomonas flourescens", "result": "significantly less biofilm"}, {"measurement": "biofilm formation of Pseudomonas putida", "setting": "Pseudomonas putida", "result": "significantly less biofilm"}]}]}
